Here are results for 20 compounds from US12655107B2 (The United States of America, as represented by the …, priority 2018, dated 2026).

“And” between values parts separate entries of the source, which are not always exact repeats. Equal values may be shown once.

For test [1], the system named is A549. The test is described as follows: MTT cytotoxicity assay, A549. The class given is cell-based, human. The following applies: 72 h, Table 7, read-out: GI50 ± SC (μM) A-49. How it is done:
(§1) Cytotoxicity Assays. […] The cells were incubated with the tested compounds for 72 hours in a five-dose assay ranging from 0.01 to 100 μM concentration. After drug treatments, MTT solution was added to test the percentage growth of tumor cells.
(§2) The compounds were incubated with the cells for 72 hours in a five-dose assay ranging from 0.01 to 100 μM concentration. At the end of the incubation, the MTT solution was added to test the percentage growth of tumor cells.
(§3) For the drug treatment experiments, the cancer cells were treated with the compounds (predissolved in DMSO) at a five-dose assay ranging from 0.01 to 100 μM concentration. […] After 4 h incubation, the formazan crystal formed in the well was dissolved with […] of DMSO for optical density reading at 570 nm. The GI50 value was calculated by nonlinear regression analysis (GraphPad Prism).
(In general: Formazan colour is commonly taken as a measure of viable cells.)

Test [2] has as its target T1, Top1 (Homo sapiens, UniProt P11387).
T1 sequence (P11387 1-765): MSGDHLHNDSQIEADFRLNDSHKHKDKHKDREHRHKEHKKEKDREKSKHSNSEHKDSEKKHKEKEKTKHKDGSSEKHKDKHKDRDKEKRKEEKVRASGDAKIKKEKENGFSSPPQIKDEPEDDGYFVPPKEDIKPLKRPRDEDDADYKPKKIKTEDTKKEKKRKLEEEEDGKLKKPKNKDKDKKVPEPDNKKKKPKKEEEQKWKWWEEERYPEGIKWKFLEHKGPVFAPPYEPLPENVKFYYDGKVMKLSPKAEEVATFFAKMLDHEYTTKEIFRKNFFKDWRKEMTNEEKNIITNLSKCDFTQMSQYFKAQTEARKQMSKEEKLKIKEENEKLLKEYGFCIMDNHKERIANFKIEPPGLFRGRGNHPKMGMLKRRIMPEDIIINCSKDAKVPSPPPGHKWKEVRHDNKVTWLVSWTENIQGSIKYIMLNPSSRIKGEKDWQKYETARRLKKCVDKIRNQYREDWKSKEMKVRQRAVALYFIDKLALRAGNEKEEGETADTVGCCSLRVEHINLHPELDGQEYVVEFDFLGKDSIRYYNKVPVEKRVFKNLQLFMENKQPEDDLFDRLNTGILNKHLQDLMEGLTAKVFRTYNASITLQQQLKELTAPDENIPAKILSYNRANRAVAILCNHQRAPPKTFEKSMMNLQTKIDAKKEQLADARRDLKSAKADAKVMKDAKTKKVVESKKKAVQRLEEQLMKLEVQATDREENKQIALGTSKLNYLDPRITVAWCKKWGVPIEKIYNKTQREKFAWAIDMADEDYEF
The test is described as follows: Top1-mediated DNA cleavage assay. Format: biochemical. The following applies: for TOP1 inhibition: graded relative to CPT at 1 μM, Table 7; for Top1 cleavage: inhibition relative to 1 μM CPT, Table 6.

Test [3] concerns HCT116. The test can be described thus: MTT cytotoxicity assay, HCT116. Format: cell-based, human. Conditions: 72 h, Table 7, read-out: GI50 ± SC (μM) HCT116. The method, then: as §1, §2, §3
Test [4] deals with MCF-7. The test is described as follows: MTT cytotoxicity assay, MCF-7. The class given is cell-based, human. The following applies: 72 h, Table 7, read-out: GI50 ± SC (μM) MCF-7. The method, then:
as §2, §3

In test [5] the test system is DU145. The test is described as follows: MTT cytotoxicity assay, DU145. The following applies: 72 h, Table 7, read-out: GI50 ± SC (μM) DU145. The class given is cell-based, human. The method, then: as §1, §2, §3
The target of test [6] is Tdp1 (Homo sapiens, UniProt Q9NUW8). The test can be described thus: Tdp1 inhibition gel-based assay. The following applies: IC50 Tdp1 (μM), Table 6; replicate values listed in one cell.
Chain of Tdp1 (Q9NUW8 whole entry): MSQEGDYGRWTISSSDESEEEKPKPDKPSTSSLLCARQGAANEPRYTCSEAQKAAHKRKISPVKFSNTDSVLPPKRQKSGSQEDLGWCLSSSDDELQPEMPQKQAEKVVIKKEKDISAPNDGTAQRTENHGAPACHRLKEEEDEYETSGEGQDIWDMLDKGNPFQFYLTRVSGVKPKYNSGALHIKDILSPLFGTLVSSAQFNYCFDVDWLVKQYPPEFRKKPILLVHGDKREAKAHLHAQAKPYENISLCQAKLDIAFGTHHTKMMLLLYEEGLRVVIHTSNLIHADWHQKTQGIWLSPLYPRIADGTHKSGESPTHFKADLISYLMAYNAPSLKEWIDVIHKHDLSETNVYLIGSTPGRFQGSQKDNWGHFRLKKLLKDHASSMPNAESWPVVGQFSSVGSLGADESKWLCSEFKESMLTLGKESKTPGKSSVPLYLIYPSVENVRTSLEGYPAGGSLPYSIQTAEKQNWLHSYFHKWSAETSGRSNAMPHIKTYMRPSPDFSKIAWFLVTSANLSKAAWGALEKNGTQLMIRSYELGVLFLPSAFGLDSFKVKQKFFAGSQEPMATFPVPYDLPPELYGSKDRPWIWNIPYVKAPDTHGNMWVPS
Description: The indenoisoquinoline 10 was used as the positive control.
Gel-based assay. […] Gels were dried and exposed to a PhosphorImager screen (GE Healthcare). Gel images were scanned using a Typhoon FLA 9500 scanner (GE Healthcare), and densitometry analyses were performed using the ImageQuant software (GE Healthcare).

For the compound `COc1cc2c(=O)n(CCNS(=O)(=O)C3CC3)c3c4cc5c(cc4ccc3c2cc1OC)OCO5` [Compound 58, N-(2-(2,3-dimethoxy-13-oxo-[1,3]dioxolo[4′,5′:4,5]benzo[1,2-c]phenanthridin-12(13H)-yl)ethyl)cyclopropanesulfonamide], the GI50 (in general, the concentration that inhibits growth by half) in test [1] is 4.3 ± 0.21 µM; in test [3] it was 5.2 ± 0.13 µM; in test [4], 3 ± 0.63 µM; in test [5], 1.3 ± 0.32 µM. The TOP1 inhibition entry in test [2] was “++ (++, between 50% and 75% activity)”.
As to `COc1cc2c(=O)n(CCNS(=O)(=O)N3CCOCC3)c3c4cc5c(cc4ccc3c2cc1OC)OCO5` [Compound 61, N-(2-(2,3-dimethoxy-13-oxo-[1,3]dioxolo[4′,5′:4,5]benzo[1,2-c]phenanthridin-12(13H)-yl)ethyl)morpholine-4-sulfonamide], the GI50 came to 2.9 ± 0.027 µM in test [1], 1.1 ± 0.047 µM in test [3], 0.89 ± 0.12 µM in test [4] and 1.6 ± 0.021 µM in test [5]. In addition, in test [2], the TOP1 inhibition result was “++ (++, between 50% and 75% activity)”.
For the compound `COc1cc2c(=O)n(CCN(C)S(=O)(=O)C3CC3)c3c4cc5c(cc4ccc3c2cc1OC)OCO5` [Compound 52, N-(2-(2,3-dimethoxy-13-oxo-[1,3]dioxolo[4′,5′:4,5]benzo[1,2-c]phenanthridin-12(13H)-yl)ethyl)-N-methylcyclopropanesulfonanide], the GI50 was found to be 15 ± 1.5 µM in test [1], 7.9 ± 0.15 µM in test [3], 5.8 ± 0.89 µM in test [4] and 10 ± 1.2 µM in test [5]. Further, in test [2], the TOP1 inhibition entry was “+ (+, between 20% and 50% activity)”.
On to `COc1cc2c(=O)n(CCNS(=O)(=O)N3CCCC3)c3c4cc5c(cc4ccc3c2cc1OC)OCO5` [Compound 60, N-(2-(2,3-dimethoxy-13-oxo-[1,3]dioxolo[4′,5′:4,5]benzo[1,2-c]phenanthridin-12(13H)-yl)ethyl)pyrrolidine-1-sulfonamide], for which the concentration for 50% growth inhibition (GI50) in test [1] stood at 61 ± 0.15 µM; in test [3], 34 ± 1.1 µM; in test [4] it was 38 ± 0.78 µM; in test [5] it was 79 ± 1 µM.
The like results for `COc1cc2c(=O)n(CCN(C)S(=O)(=O)C(F)(F)F)c3c4cc5c(cc4ccc3c2cc1OC)OCO5` [Compound 51, N-(2-(2,3-dimethoxy-13-oxo-[1,3]dioxolo[4′5′:4,5]benzo[1,2-c]phenanthridin-12(13H)-yl)ethyl)-1,1,1-trifluoro-N-methylmethanesulfonamide] were, in that order, 42 ± 0.98 µM, 86 ± 2.5 µM, 35 ± 1.7 µM and 65 ± 1.2 µM.
`COc1cc2c(=O)n(CCN(C)S(=O)(=O)N3CCOCC3)c3c4cc5c(cc4ccc3c2cc1OC)OCO5` [Compound 55, N-(2-(2,3-dimethoxy-13-oxo-[1,3]dioxolo[4′,5′:4,5]benzo[1,2-c]phenanthridin-12(13H)-yl)ethyl)-N-methylmorpholine-4-sulfonamide]: the concentration for 50% growth inhibition (GI50) was found to be 35 ± 2.5 µM in test [1], 40 ± 1.2 µM in test [3], 64 ± 0.57 µM in test [4] and 48 ± 1.2 µM in test [5]. Besides, the TOP1 inhibition result in test [2] was “+ (+, between 20% and 50% activity)”.
In the case of `COc1cc2c(=O)n(CCNP(=O)(OC)OC)c3c4cc5c(cc4ccc3c2cc1OC)OCO5` [Compound 62, Dimethyl(2-(2,3-dimethoxy-13-oxo-[1,3]dioxolo[4′,5′:4,5]benzo[1,2-c]phenanthridin-12(13H)-yl)ethyl)phosphoramidate], the concentration for 50% growth inhibition (GI50) in test [1] was 41 ± 2 µM; in test [3], 51 ± 1.5 µM; in test [4], 48 ± 1.9 µM; in test [5], 39 ± 2.2 µM.
`COc1cc2c(NCCCN(C)C)nc3c4cc5c(cc4ccc3c2cc1OC)OCO5` [NTD-301]: the Top1 cleavage in test [2] is 0 (0 is inactive). Moreover, half-maximal inhibition in test [6] (IC50) required 38 µM.
As to `COc1cc2c(=O)n(CCN(C)C)c3c4cc(O)c(O)cc4ccc3c2cc1OC` [TWL-164], the Top1 cleavage result in test [2] is “++ (++ is 50-75%)”. Also, the 50% inhibitory concentration (IC50) (commonly the midpoint of a concentration-inhibition curve) in test [6] was above 111 µM.
Take `COc1cc2c(=O)n(CCN(C)S(=O)(=O)N3CCCC3)c3c4cc5c(cc4ccc3c2cc1OC)OCO5` [Compound 54, N-(2-(2,3-dimethoxy-13-oxo-[1,3]dioxolo[4,5′:4,5]benzo[1,2-c]phenanthridin-12(13H)-yl)ethyl)-N-methylpyrrolidine-1-sulfonamide]: the GI50 in test [1] was 5.3 ± 0.41 µM; in test [3] it was 2.5 ± 0.18 µM; in test [4] it was 3.8 ± 0.25 µM; in test [5], 3.1 ± 0.3 µM. Besides, the TOP1 inhibition entry in test [2] is “+ (+, between 20% and 50% activity)”.
Turning to `CN(C)CCn1c(=O)c2cc(O)ccc2c2ccc3ccccc3c21` [TWL-25A], the Top1 cleavage entry in test [2] was “+ (+ is 20-50%)”. In addition, in test [6], the IC50 was > 111 µM (2×) and 74.1 µM and 75.9 µM.
Consider `COc1cc2c(OCCCOC(=O)c3ccccc3)nc3c4cc5c(cc4ccc3c2cc1OC)OCO5` [NTD-208], for which the Top1 cleavage result in test [2] is listed as “+ (+ is 20-50%)”. In addition, the 50% inhibitory concentration (IC50) in test [6] was above 111 µM.
For `COc1cc2c(SCCN(C)C)nc3c4cc5c(cc4ccc3c2cc1OC)OCO5` [NTD-403] the same measures were “++ (n = 2) (++ is 50-75%)” and above 111 µM.
On to `COc1cc2c(NCCN)nc3c4cc5c(cc4ccc3c2cc1OC)OCO5` [NTD-325], for which the Top1 cleavage in test [2] is 0 (0 is inactive). Further, the IC50 in test [6] is 72 µM and 107 µM.
As for `COc1cc2c(=O)n(CCNC(=O)C3CC3)c3c4cc5c(cc4ccc3c2cc1OC)OCO5` [Compound 63, N-(2-(2,3-dimethoxy-13-oxo-[1,3]dioxolo[4,5′:4,5]benzo[1,2-c]phenanthridin-12(13H)-yl)ethyl)cyclopropanecarboxamide], the GI50 in test [1] worked out at 1.3 ± 0.006 µM; in test [3] it was 5.3 ± 0.11 µM; in test [4], 2.2 ± 0.27 µM; in test [5], 7.8 ± 0.52 µM. Besides, the TOP1 inhibition entry in test [2] is “+ (+, between 20% and 50% activity)”.
Turning to `COc1cc2ccc3c4ccc5c(c4c(=O)n(CCN(C)C)c3c2cc1OC)OCO5` [TWL-189], in test [2], the Top1 cleavage result is listed as “+ (+ is 20-50%)”. The half-inhibitory concentration (IC50) in test [6] is above 111 µM.
Consider `COc1cc2c(cc1O)c(=O)n(CCN(C)C)c1c3cc4c(cc3ccc21)OCO4` [TWL-113], for which the Top1 cleavage result in test [2] was “+ (+ is 20-50%)”. The IC50 in test [6] was > 111 µM (2×) and 65 µM.
As to “N-(2-(2,3-dimethoxy-13-oxo-[1,3]dioxolo[4′,5′:4,5]benzo[1,2-c]phenanthridin-12(13H)-yl)ethyl)-N-methyldiethylamine-1-sulfonamide [Compound 53]”, the GI50 in test [1] was 7.9 ± 0.23 µM; in test [3], 0.96 ± 0.04 µM; in test [4], 1.5 ± 0.15 µM; in test [5], 15 ± 0.59 µM. The TOP1 inhibition entry in test [2] is “+ (+, between 20% and 50% activity)”.
On to “Dimethyl(2-(2,3-dimethoxy-13-oxo-[1,3]dioxolo[4′,5′:4,5]benzo[1,2-c]phe-nanthridin-12(13H)-yl)ethyl)(methyl)phosphoramidate [Compound 56]”, for which the GI50 is 14 ± 1.4 µM in test [1], 9.2 ± 0.14 µM in test [3], 10 ± 0.54 µM in test [4] and 5.3 ± 0.21 µM in test [5]. Further, the TOP1 inhibition result in test [2] is “++ (++, between 50% and 75% activity)”.
On to `COc1cc2c(=O)n(CCNS(=O)(=O)N(C)C)c3c4cc5c(cc4ccc3c2cc1OC)OCO5` [Compound 59, N-(2-(2,3-dimethoxy-13-oxo-[1,3]dioxolo[4′,5′:4,5]benzo[1,2-c]phenanthridin-12(13H)-yl)ethyl)dimethylamine-1-sulfonamide], for which the GI50 in test [1] was 35 ± 0.14 µM; in test [3] it was 30 ± 2.1 µM; in test [4] it was 21 ± 1 µM; in test [5], 45 ± 1.2 µM. The TOP1 inhibition result in test [2] is “+ (+, between 20% and 50% activity)”.
